Test system: mouse ES cells
Assay: In vitro hepatic differentiation of ES cells (EBs): marker mRNA expression by RT-PCR / real-time PCR
Type: cell-based
Settings: EBs on collagen coated dishes, factors of individual stages, Day 18
Experimental: Cell Culture—The ES cell lines R1 (129Sv strain), W9.5 (129Sv), and SEK1 null (established from W9.5) (Ganiatsas et al., (1998) Proc. Natl. Acad. Sci. USA 95, 6881-6) were maintained undifferentiated in gelatin-coated dishes in DMEM (GIBCO BRL, Grand Island, N.Y.) containing 15% fetal bovine serum (Atlanta biologicals, Norcross, Ga.), 2 mM L-glutamine, 100 units/ml penicilin, 100 μg/ml streptomycin, 25 mM Hepes (GIBCO BRL), 300 μM monothioglycerol (Sigma, St. Louis, Mo.), and 250 unit/ml recombinant mouse LIF (ESGRO, CHEMICON, Temecula, Calif.). To induce differentiation, ES cells were suspended in IMDM containing 2 mM L-glutamine, 100 units/ml penicillin, 100 μg/ml streptomycin (GIBCO BRL), 20% fetal bovine serum (Atlanta biologicals) and 300 μM monothioglycerol (Sigma). Cells were cultured for 2 days by the hanging-drop method (1×10^3 ES cells per 30 μl in each drop) (Metzger et al., (1994) J. Cell. Biol. 126, 701-11). EBs in hanging drops were transferred to suspension culture in 100-mm petri dishes and cultured for an additional 3 days. […]
For each gene, the DNA primers were originated from different exons to ensure that the PCR product represented the specific mRNA species and not genomic DNA. Relative quantitation of albumin gene was performed by ABIPRISM5700 sequence detection system and SYBR green PCR master mix (PE Biosystems, Foster City, Calif.). […]

hepatocyte growth factor [HGF]
G6P expression (FIG. 5a): critical
